Test results published in patent US20230140290A1, “SALICYLAMIDE DERIVATIVES AND RELATED METHODS OF MAKING” (THE BOARD OF REGENTS OF THE UNIVERSITY OF TEXAS SY, priority 2020, published 2023).
Several values for one entry are separate records, joined by “and”; a condition that tells them apart may be missing. Equal entries are not always repeated.

Experiments:
HAdV5-GFP [1] = assay: Plaque assay (inhibition of HAdV plaque formation); format: cell-based, HAdV-5; settings: for Selectivity index (SI): ratio of CC50 to IC50 in plaque assay; for inhibition at 10 µM: read-out: Plaque Assay (%) Inhibition (10 μM)
How it was run: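 Compounds were present in the post-infection mixture at 10 μM, or at 10 to 0.3 μM for dose-response. Infection used low MOI HAdV5-GFP (0.06 vp/cell) on 80-90% confluent cells, 2 h rocking at 37° C, then a PBS wash.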

wild-type HAdV5 [2] = assay: HAdV DNA quantification by real-time PCR (DNA replication); format: cell-based, HAdV-5; settings: 24 h
Experimental: DNA Quantification by Real-Time PCR. […] Infected cells were incubated 24 h at 37° C. in 500 μL of complete DMEM containing 25 μM of either compounds or the same volume of DMSO (positive control). All samples were done in duplicate. After 24 h of incubation at 37° C., DNA was purified from the cell lysate with the QIAamp DNA Mini Kit (QIAGEN, Valencia, Calif.) following the manufacturer's instructions. TaqMan primers and probes for a common region of the HAdV5 were designed with the GenScript Real-Time PCR (TaqMan) Primer Design software (GenScript). […] Real-time PCR mixtures consisted of 9.5 μL of the purified DNA, AQ1 and AQ2 at a concentration of 200 nM each and Probe at a concentration of 50 nM in a total volume of 25 μL. The PCR cycling protocol was 95° C. for 3 min followed by 40 cycles of 95° C. for 10 s and 60° C. for 30 s. Human glyceraldehyde-3-phosphate dehydrogenase (GAPDH) gene was used as internal control. Oligonucleotides sequences for GAPDH and conditions were those previously reported by Henke-Gendo et al. (2012).
For quantification, gene fragments from hexon, and GAPDH were cloned into the pGEM-T Easy vector (Promega) and known concentrations of template were used to generate a standard curve in parallel for each experiment. All assays were performed in thermal cycler LightCycler® 96 System (Roche).
(§1) HAdV DNA Quantification by Real-Time PCR. […] All samples were done in duplicate. After 24 h of incubation at 37° C., DNA was purified from the cell lysate with the E.Z.N.A.® Tissue DNA Kit (Omega Bio-tek, Norcross, Ga.) following the manufacturer's instructions. TaqMan primers and probes for a common region of the HAdV5 were designed with the GenScript Real-Time PCR (TaqMan) Primer Design software (GenScript). […] Real-time PCR mixtures consisted of 9.5 μL of the purified DNA, AQ1 and AQ2 at a concentration of 200 nM each and Probe at a concentration of 50 nM in a total volume of 25 μL. The PCR cycling protocol was 95° C. for 3 min followed by 40 cycles of 95° C. for 10 s and 60° C. for 30 s. Human glyceraldehyde-3-phosphate dehydrogenase (GAPDH) gene was used as internal control. Oligonucleotides sequences for GAPDH and conditions were those previously reported by Henke-Gendo et al. (2012).
as §1, with “DNA” for “HAdV DNA”

wild-type HAdV5 [3] = assay: Nuclear-associated HAdV genomes (real-time PCR); format: cell-based, HAdV-5
Experimental: (§2) Nuclear-Associated HAdV Genomes. The nuclear delivery of HAdV genomes was assessed by real-time PCR following nuclear isolation from infected cells. […] Forty-five minutes after infection, A549 cells were trypsinized and collected and then washed twice with PBS. Then, cytoplasmic and nuclear fractions were separated using a hypotonic buffer solution and NP-40 detergent. The cell pellet was resuspended in 500 μL of 1×hypotonic buffer (20 mM Tris-HCl pH 7.4, 10 mM NaCl, 3 mM MgCl2) and incubated for 15 min at 4° C. Then, 25 μL of NP-40 was added and the samples were vortexed. The homogenates were centrifuged for 10 min at 835 g at 4° C. Following the removal of the cytoplasmic fraction (supernatant), HAdV DNA was isolated from the nuclear fraction (pellet) and from the cytoplasmic fraction using the QIAamp DNA Mini Kit (QIAGEN, Valencia, Calif.).
as §2, with “E.Z.N.A.® Tissue” for “QIAamp”, “DNA” for “DNA Mini”, “(Omega Bio-tek, Norcross, Ga.).” for “(QIAGEN, Valencia, Calif.).”

A549 cells = assay: Cytotoxicity assay (AlamarBlue); settings: read-out: CC50 (μM), cytotoxic concentration 50%; A549 cell line, 48 h
Experimental: (§3) Cytotoxicity Assay. The cytotoxicity of the compounds was analyzed by commercial kit AlamarBlue® (Invitrogen, Ref. DAL1025). A549 cells at a density of 5×10^3 cells per well in 96-well plates were seeded. […] Cells were then incubated at 37° C. for 48 h following the kit protocol. The cytotoxic concentration 50 (CC50) value was obtained using the statistical package GraphPad Prism. This assay was performed in duplicate.

HAdV5-GFP [4] = assay: Entry assay (HAdV5-mediated GFP expression); format: cell-based, HAdV-5; settings: for inhibition at 50 µM: A549, 48 h, read-out: (%) Inhibition Entry Assay (50 μM)
Experimental: Entry Assay. The anti-HAdV activity was measured in an entry assay using human A549 epithelial cells (3×10^5 cells/well in coming black wall, clear bottom 96-well plates) infected with HAdV5-GFP (2000 vp/cell) in the presence 50 μM of the candidates and in a dose-response assay. A standard infection curve was generated in parallel by infecting cells in the absence of compounds using serial 2-fold dilutions of virus. All reactions were done in triplicate. Cells, virus, and drugs were incubated for 48 h at 37° C. and 5% CO2.

[5] = Cytotoxicity assay (AlamarBlue); settings: human, A549 cells
Experimental: as §3

[6] = read-out: Plaque Assay IC50 (μM), HAdV5-GFP, low MOI, 293β5 cell line
[7] = A549, read-out: IC50 Entry Assay (μM), HAdV5-GFP, high MOI, A549 cell line
[8] = FIG. 5A, 45 min post-infection, 10-fold plaque IC50
[9] = HAdV5-GFP, low MOI, 293β5 cell line, read-out: Plaque Assay IC50

SMILES | Selectivity index (SI) (HAdV5-GFP [1]) | inhibition at 10 µM (HAdV5-GFP [1]) [%] | IC50 (HAdV5-GFP [1]; [6]) [µM] | inhibition of HAdV-5 DNA replication (qPCR) (wild-type HAdV5 [2]; FIG. 4, concentrations by CC50 (2-50 μM)) | amount of nuclear-associated HAdV genomes versus DMSO (wild-type HAdV5 [3]; FIG. 3, 45 min post infection, concentrations by CC50 (2-50 μM)) | CC50 (A549 cells) [µM] | inhibition at 50 µM (HAdV5-GFP [4]) [%] | IC50 (HAdV5-GFP [4]; [7]) [µM] | CC50 at 48 h [5] [µM] | inhibition of HAdV-5 DNA replication (qPCR) (wild-type HAdV5 [2]; FIG. 6A, 10-fold plaque IC50) | amount of nuclear-associated HAdV genomes versus DMSO (wild-type HAdV5 [3]; [8]) | IC50 (HAdV5-GFP [4]; {}) [µM] | IC50 (HAdV5-GFP [1]; [9]) [µM] | IC50 (HAdV5-GFP [1]; {}) [µM]
O=C(Nc1cc(F)cc(C(F)(F)F)c1)c1ccc(Cl)cc1O [Compound 20, 4-Chloro-N-(3-fluoro-5-(trifluoromethyl)phenyl)-2-hydroxybenzamide] | 186.8 | 96.8 ± 1.9 | 0.11 | low inhibition | partially inhibited | 20.6 | 100 | 0.26 ± 0.09 | – | – | – | – | – | –
C[C@@H](NC(=O)c1cc(Cl)ccc1O)c1ccc(F)cc1 [Compound 49, (R)-5-Chloro-N-(1-(4-fluorophenyl)ethyl)-2-hydroxybenzamide] | 57.8 and 66.2 | 100 | 3.02 | – | – | – | – | – | > 200 | – | – | – | – | –
CC(C)(NC(=O)c1cc(Cl)ccc1O)c1ccc(F)cc1 [Compound 51, 5-Chloro-N-(2-(4-fluorophenyl)propan-2-yl)-2-hydroxybenzamide] | 39.1 and 57.8 | 100 | 3.46 | – | – | – | – | – | > 200 | – | – | – | – | –
O=C(Nc1ccc(NCc2ccc(O)cc2)cc1Cl)c1cc(Cl)ccc1O [Compound 101, 5-Chloro-N-(2-chloro-4-((4-hydroxybenzyl)amino)phenyl)-2-hydroxybenzamide] | 104.1 | 80.7 ± 9.1 | 1.11 | – | – | 116 | 83.3 | 15.2 to 30.8 | – | low inhibition | significant reductions | 25 ± 6.9 | – | –
O=C(Nc1ccc(NCc2ccncc2)cc1Cl)c1cc(Cl)ccc1O [Compound 108, 5-Chloro-N-(2-chloro-4-((pyridin-4-ylmethyl)amino)phenyl)-2-hydroxybenzamide] | 24.6 | 100 | – | – | – | 65.3 ± 5.7 | – | – | 65.3 to 126 | – | – | – | 1.66 to 4.78 | 2.66 ± 0.17
O=C(Nc1ccc(NCc2cccnc2Cl)cc1Cl)c1cc(Cl)ccc1O [Compound 109, 5-Chloro-N-(2-chloro-4-(((2-chloropyridin-3-yl)methyl)amino)phenyl)-2-hydroxybenzamide] | 21.0 | 100 | – | – | – | 100 ± 29.8 | – | – | 65.3 to 126 | – | – | – | – | –
O=C(Nc1ccc(NCc2cnccc2Cl)cc1Cl)c1cc(Cl)ccc1O [Compound 110, 5-Chloro-N-(2-chloro-4-(((4-chloropyridin-3-yl)methyl)amino)phenyl)-2-hydroxybenzamide] | 75.7 | 100 | – | – | – | 126 ± 25.1 | – | – | 65.3 to 126 | – | – | – | 1.66 to 4.78 | 1.66 ± 0.42
O=C(Nc1ccc(NCc2cccc(Br)n2)cc1Cl)c1cc(Cl)ccc1O [Compound 111, N-(4-(((6-Bromopyridin-2-yl)methyl)amino)-2-chlorophenyl)-5-chloro-2-hydroxybenzamide] | 40.8 | 100 | – | – | – | 92.3 ± 9.5 | – | – | 65.3 to 126 | – | – | – | 1.66 to 4.78 | 2.26 ± 0.05
O=C(Nc1ccc(NCc2ccc(O)nc2)cc1Cl)c1cc(Cl)ccc1O [Compound 112, 5-Chloro-N-(2-chloro-4-(((6-hydroxypyridin-3-yl)methyl)amino)phenyl)-2-hydroxybenzamide] | 126.3 | 100 | 0.78 | – | – | 98.5 | 51.7 ± 9.8 | > 50 | – | low inhibition | significant reductions | – | – | –
CC(C)(CCO)Nc1ccc(NC(=O)c2cc(Cl)ccc2O)c(Cl)c1 [Compound 118, 5-Chloro-N-(2-chloro-4-((4-hydroxy-2-methylbutan-2-yl)amino)phenyl)-2-hydroxybenzamide] | 188.3 | 92.3 | 0.9 | – | – | 170 ± 4.2 | 42.1 ± 3 | > 50 | – | low inhibition | no significant differences | – | – | –
CC(CCO)Nc1ccc(NC(=O)c2cc(Cl)ccc2O)c(Cl)c1 (stereo not shown) [Compound 119, 5-Chloro-N-(2-chloro-4-((4-hydroxybutan-2-yl)amino)phenyl)-2-hydroxybenzamide] | 166.7 | 96.9 ± 2.4 | 1.2 | – | – | 200 | 88.6 | – | – | low inhibition | no significant differences | – | – | –
Nc1ccn(C[C@@H](CO)OCP(=O)(O)O)c(=O)n1 [cidofovir, reference compound] | 7.5 | – | 24.1 ± 5.9 | – | – | – | – | – | 50.1 ± 9.8 | – | – | – | – | –
